Experimental data from PMC2593629 (Bioorganic & medicinal chemistry letters, 2008).
pEC50, pIC50, pKd: −log10 of the molar value. Where two headings read alike, the source gives them in different places.

How the values were obtained:
[1] = molecular target: T1, CB1 (Mus musculus, UniProt P47746); assay: biochemical
[2] = tested on: CB1 -/- mouse brain membranes; format: biochemical
[3] = tested on: mice; settings: mouse
[4] = molecular target: T2, mouse brain MAGL (Mus musculus, UniProt O35678); assay: MAGL activity in mouse brain membranes; format: biochemical; settings: read-out: MAGL IC50
T2 sequence (O35678 1-303): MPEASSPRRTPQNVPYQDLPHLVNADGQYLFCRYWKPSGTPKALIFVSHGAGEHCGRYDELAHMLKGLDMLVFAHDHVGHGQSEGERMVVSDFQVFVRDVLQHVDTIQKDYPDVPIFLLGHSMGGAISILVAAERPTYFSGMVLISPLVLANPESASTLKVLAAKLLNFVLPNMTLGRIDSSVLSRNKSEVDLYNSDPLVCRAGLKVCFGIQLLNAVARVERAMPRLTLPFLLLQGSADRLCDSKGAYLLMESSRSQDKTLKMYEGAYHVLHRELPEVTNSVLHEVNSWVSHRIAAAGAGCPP

[5] = molecular target: eCB1 (CB1 overexpressed in HEK293 cells) (Mus musculus, UniProt P47746); format: binding
[6] = molecular target: T1, CB1; assay: biochemical; format: binding

T1 sequence (P47746 whole entry): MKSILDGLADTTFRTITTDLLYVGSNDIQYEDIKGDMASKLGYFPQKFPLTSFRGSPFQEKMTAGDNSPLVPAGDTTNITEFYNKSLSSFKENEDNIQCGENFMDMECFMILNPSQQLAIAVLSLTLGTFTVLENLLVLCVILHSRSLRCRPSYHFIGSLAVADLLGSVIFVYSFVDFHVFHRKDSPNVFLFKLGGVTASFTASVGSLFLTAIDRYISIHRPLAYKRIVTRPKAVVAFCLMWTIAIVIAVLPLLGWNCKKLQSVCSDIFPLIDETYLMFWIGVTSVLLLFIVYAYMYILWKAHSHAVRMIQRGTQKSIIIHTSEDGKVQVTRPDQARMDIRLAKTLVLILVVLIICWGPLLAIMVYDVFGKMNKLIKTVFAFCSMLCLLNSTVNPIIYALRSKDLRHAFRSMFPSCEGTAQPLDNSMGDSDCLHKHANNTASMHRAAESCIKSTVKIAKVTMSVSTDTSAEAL
Chain of eCB1 (CB1 overexpressed in HEK293 cells) (P47746 whole entry): as above

CCCCC/C=C\C/C=C\C/C=C\C/C=C\CCCC(=O)OC(CO)CO [2-AG, 2-arachidonoylglycerol]
pEC50 ([1]; EC50 for stimulation of GTPγS binding): 6.00 | pEC50 ([1]; EC50 of 2-AG for stimulation of GTPγS binding after preincubation with OP 1): 6.52 | Stimulation of GTPγS binding in CB1 -/- membranes [2]: significant

CCCCCCCCCCCCP(=O)(OCC)Oc1nc(Cl)c(Cl)cc1Cl (centres unmarked) [OP 3]
In vivo effectiveness in modulating behavior and brain 2-AG and AA levels [3]: not effective in vivo

CCCCCCCCCCCCP(=O)(OCC)Oc1ccc(C#N)cc1 (centres unmarked) [OP 4]
In vivo effectiveness in modulating behavior and brain 2-AG and AA levels [3]: very effective in vivo in all respects | pIC50 ([4]; substrate 2-AG): 7.15 | pIC50 ([4]; substrate [14C]1-oleoylglycerol): 7.15

CCOP(=O)(OCC)Oc1nc(Cl)c(Cl)cc1Cl [OP 7, chlorpyrifos oxon]
Sensitivity of eCB1 [3H]CP55940 binding [5]: not sensitive

CCCCCCCCCCCCS(=O)(=O)F [OS 9]
In vivo effectiveness in modulating behavior and brain 2-AG and AA levels [3]: same in vivo effects as OP 1 and OP 4

CCCCCCCCS(=O)(=O)F [OS 10]
In vivo effectiveness in modulating behavior and brain 2-AG and AA levels [3]: same in vivo effects as OP 1 and OP 4

CCCCCCC(C)(C)c1ccc([C@@H]2C[C@H](O)CC[C@H]2CCCO)c(O)c1 [[^3H]CP55940]
pKd [6]: 9.07
